Several values for one entry are separate records, joined by “and”; a condition that tells them apart may be missing. Equal entries are not always repeated. Where two headings read alike, the source gives them in different places. Where a SMILES comes first, the peptide text is derived from it.
How the values were obtained:
phosphorylated Tau = assay: Brain immunohistochemistry, phosphorylated Tau (AT180, AT8); assay type: in vivo, mice; details: for Intracellular phosphorylated Tau immunoreactivity (AT180): hippocampus and cortex of 5XFAD mice
Description: (§1) Group 2 TG-VEH: 5xFAD mice treated with vehicle of formulation (saline).
(§2) Group 3 TG-NBP14: 5xFAD mice treated with NBP-14 at the dose 10 mg/kg.
(§3) Histological Time-Points: • After 1 single treatment at the start of treatment, in a satellite group of mice (T0W). • After 6 weeks of treatment (T6W) in a satellite group of mice. • After 14 weeks of treatment (14W) in a group of mice from NOR cohorts (analysis ongoing).
(§4) Brain samples from all Tg-5XFAD mice were fixed, cryosectioned and immunostained for detection of amyloid, phosphorylated Tau and gliosis using the antibodies listed in Table 1.
(§5) Serial sections were collected and every sixth section starting at the midline were immunostained for markers of AD pathology. A total of six sections per animal were used for quantitative analysis.
(§6) Having shown the ability of NBP-14 to reverse the cognitive decline observed in Tg-5XFAD mice as discussed above, the inventors then sought to determine the structural or physiological changes occurring in the brains of mice treated with NBP-14. The inventors utilised histological staining of the brain to determine the changes of various brain-located markers (i.e. phosphorylated Tau, NeuN, (3-amyloid, and Ibal) that are associated with cognitive decline in both 5XFAD mice and also mice that had been treated with NBP-14. These biomarkers were measured after acute treatment with NBP-14 and also six weeks after treatment.

transgenic Tg-5XFAD mice [1] = assay: Behavioural scoring of grooming/sitting during NOR procedure; assay type: in vivo; details: chronic treatment, T1 and T2 phase of NOR procedure, 10 min each
Description: Grooming/sitting/locomotion was measured on the mice subjected to NOR testing [i.e., Wild Type data included at 14 weeks post treatment].
Behavioural scoring was assessed during the T1 (familiar) and T2 (novel) phase of NOR procedure (over 10 min each phase).

[2] = system: Iba1 (activated microglia); assay: Brain immunohistochemistry, gliosis (Iba1-positive cells); assay type: in vivo, mice
Description: as §1, §2, §3, §4, §5
(§7) Having shown the ability of NBP-14 to reverse the cognitive decline observed in Tg-5XFAD mice as discussed above, the inventors then sought to determine the structural or physiological changes occurring in the brains of mice treated with NBP-14. […]

transgenic Tg-5XFAD mice [3] = assay: Novel Object Recognition (NOR) test for cognitive readout; assay type: in vivo
Text: Assessment of Novel Object Recognition (NOR) test at the following time points: • T0W, basal NOR behaviour immediately before starting of the experiment. • T6W, 6 weeks after starting of treatment. • T14W, 14 weeks after starting of treatment.
Group 1 WT mice (n=15) used as control animal during the experimental procedure. No subject to treatment.
Group 2 TG VEH: 5XFAD mice (n=14) treated with vehicle of formulation (saline).
Group 3 TG NBP14: 5XFAD mice (n=28) treated with NBP14 at the dose 10 mg/kg.
NOR behavioural assessment time points: • Immediately before start of treatment (T0W) • 6 weeks after start of treatment (T6W) • 14 weeks after start of treatment (T14W)
Behaviour recorded on video for subsequent scoring for the object exploration. Object investigation has been defined as directing the nose towards the object (i.e., sniffing or touching with the nose) at a distance of 2 cm or less. Climbing and sitting on the objects is not considered to be object examination.
A criterion of minimal level of object exploration was used in the study to exclude animals with naturally low levels of spontaneous exploration: mice having a minimal level of object exploration of lOs during the test trail will be included in the study.
Results were expressed as the total time spent (seconds) by animal towards the objects. The recognition index (RI) was also calculated as follows: (time exploring the novel object)/(time exploring novel+familiar)*100.
The inventors utilised a “novel object recognition” test, which measures the difference of the time spent exploring an unknown (i.e. novel) object versus a known or familiar object to determine the ability of mice to discriminate between novel and familiar objections that can be used as in indication of memory. The inventors used this test to determine the ability of NBP-14 to reverse memory decline in the transgenic mouse, Tg 5XFAD, predisposed to develop amyloid precursor protein (APP) and therefore amyloid plaques, and ultimately, dementia.
The inventors then determined the recognition index of mice. A recognition index above 50% reflects the ability of mice to explore an unfamiliar object (novel) than a recently presented object.

[4] = Blood/brain exposure to NBP-14 after intranasal administration (PK assessment); assay type: in vivo, mice; details: for level at 0.5 h / tissue level at time at 0.5 h: 5XFAD, mouse, inhaled or intranasal; for level at 0.5 h: blood, read-out: Blood Concentration; for tissue level at time at 0.5 h: brain, read-out: Brain Concentration
Description: Assessment of PK profile for NBP14, 10mg/kg, to allow PK/PD correlations • Satellite group of mice at T0W and T6W. • Mice from NOR test at T14W.
Group 3 TG NBP14: 5XFAD mice (n=3 for each PK) treated with NBP14 at the dose 10 mg/kg.
After 1 single treatment at the start of treatment (T0W) in a satellite group of mice.
After 6 weeks of treatment (T6W) in a satellite group of mice. The day of PK profile mice were treated with NBP14.
After 14 weeks of treatment (14W) in 2 group of mice from NOR cohorts.
On the day of PK study, mice were treated with NBP14 at 10mg/kg (IN) and blood/brain collected at 30 minutes after treatment.
An additional group of mice was subjected to blood/brain collection for NBP14 exposure without treatment on the same day at the terminal time point, after 14 weeks of treatment, to evaluate an eventual accumulation of test compound (table 1).
The inventors measured the concentration of nasally applied NBP-14 in the blood and the brain of mice, to determine whether NBP-14 was capable of crossing the blood brain barrier when applied intranasally.

NeuN positive neurons = assay: Brain immunohistochemistry, neuronal cell count (NeuN); assay type: in vivo, mice; details: cortex and hippocampus
Description: as §1, §2, §3, §4, §5, §7

β-amyloid = assay: Brain immunohistochemistry, β-amyloid (6E10 antibody); assay type: in vivo, mice; details: for Mean intensity of β-amyloid (6E10) compared to vehicle: 6 weeks of treatment
Description: as §1, §2, §3, §4, §5, §6

5xFAD mice = assay: Clinical signs during intranasal treatment of 5xFAD mice; assay type: in vivo; details: 30 mg/kg intranasal, dose lowered to 10 mg/kg from 2nd week
Description: Intranasal (IN, nose to brain) twice a week for 14 weeks (Volume of administration 10 μL/.

[5] = acute treatment, cortex and hippocampus, visual inspection
[6] = 10 mg/kg, 5XFAD mice, 10 mg/kg intranasal twice a week, T = 14W [terminal], sampling 30 min after administration
[7] = T = 14W [terminal], treated 14 weeks but no treated last day

CSCC[C@@H]1NC(=O)[C@H](Cc2ccc(O)cc2)NC(=O)[C@H](CO)NC(=O)[C@H](CO)NC(=O)[C@H](Cc2c[nH]c3ccccc23)NC(=O)[C@H](CCCNC(=N)N)NC(=O)[C@H](Cc2c[nH]cn2)NC(=O)[C@H](Cc2ccccc2)NC(=O)[C@H](CCC(=O)O)NC(=O)[C@H](C)NC(=O)[C@H](CCCCN)NC(=O)[C@H](Cc2c[nH]c3ccccc23)NC(=O)[C@H](Cc2c[nH]cn2)NC(=O)[C@H](C(C)C)NC1=O [NBP-14] (HELM PEPTIDE1{A.E.F.H.R.W.S.S.Y.M.V.H.W.K}$PEPTIDE1,PEPTIDE1,1:R1-14:R2$$$V2.0)
Intracellular phosphorylated Tau immunoreactivity (AT180) (phosphorylated Tau; 6 weeks treatment): no specific intracellular phosphorylated Tau immunoreactivity was detected
pTau detected with AT8 (pS202/pT205) in non-neuronal (NeuN negative) cells (phosphorylated Tau; 14 weeks chronic treatment, cortex and hippocampus, very low levels seen in vehicle-treated mice): not in mice treated with NBP-14
pTau detection (AT180) (phosphorylated Tau; 14 weeks chronic treatment, hippocampus, cortex, basal forebrain): no pTau (gold) was detected
Intracellular phosphorylated Tau immunoreactivity (AT180) (phosphorylated Tau; acute treatment): no specific intracellular phosphorylated Tau immunoreactivity was detected
Reduction in sitting behaviour seen in vehicle-treated Tg-5XFAD mice (transgenic Tg-5XFAD mice [1]): reversed
Gliosis (Iba1-positive cells) compared to vehicle ([2]; 6 weeks of treatment, hippocampus): significant (P<0.005) decrease
Total number or density of Iba1-positive cells compared to vehicle [2, 5]: no differences
Recognition index (RI) compared to vehicle-treated 5xFAD mice (transgenic Tg-5XFAD mice [3]; 10 mg/kg, terminal time point (14 weeks), n=27): statistical significant difference
Time exploring the novel versus familiar object (transgenic Tg-5XFAD mice [3]; 5XFAD mice, 10 mg/kg intranasal twice a week, 6 weeks after treatment, n=28): no significant difference
Time spent exploring novel object versus familiar object (transgenic Tg-5XFAD mice [3]; 5XFAD mice, 10 mg/kg intranasal twice a week, 14 weeks after treatment, n=27): statistically significant difference
Cognitive performance compared to 5XFAD vehicle-treated mice (transgenic Tg-5XFAD mice [3]; 6 week time point of NOR testing): no statistically significant differences
Brain Concentration ([4]; 5XFAD mice, 10 mg/kg intranasal, T = 0 (single treatment), sampling 30 min after administration): bql
level at 0.5 h [4, 6]: 202 ng/mL
level at 0.5 h ([4]; 10 mg/kg, 5XFAD mice, 10 mg/kg intranasal, T = 0 (single treatment), sampling 30 min after administration): 44.5 ng/mL
tissue level at time at 0.5 h ([4]; 10 mg/kg, 5XFAD mice, 10 mg/kg intranasal twice a week, T = 6W [intermediate], sampling 30 min after administration): 19.3 ng/g
tissue level at time at 0.5 h [4, 6]: 53 ng/g
BB Ratio ([4]; T = 14W [terminal], 10 mg/kg intranasal, 30 min after administration, 10 mg/kg): 0.26 and 0.21 and 0.30
Blood Concentration [4, 7]: bql
Brain Concentration [4, 7]: bql
Detection of NBP-14 in the brain ([4]; after acute treatment): no NBP-14 was observed in the brain
Detection of NBP-14 in the brain ([4]; intranasal, after both 6 weeks and 14 weeks of treatment): detected in the brain
Accumulation of the compound ([4]; mice treated for 14 weeks, not treated on the day of blood/brain collection): no accumulation
Total number or density of NeuN positive neurons compared to vehicle (NeuN positive neurons; 6 weeks of treatment): no differences
Total number or density of NeuN positive neurons compared to vehicle (NeuN positive neurons; acute treatment): no differences
Mean intensity of β-amyloid (6E10) compared to vehicle (β-amyloid; cortex (P<0.05)): significant decrease
Mean intensity of β-amyloid (6E10) compared to vehicle (β-amyloid; hippocampus (P<0.005)): significant decrease
Extracellular amyloid plaques compared to vehicle-treated controls (β-amyloid; 14 weeks, cortex, hippocampus and basal forebrain): significantly reduced
Mean intensity of 6E10 (Aβ) compared to vehicle (β-amyloid; [5]): No differences
Clinical signs (5xFAD mice): relevant clinical sign
